Data reported in ChEMBL document CHEMBL1133669 (J Med Chem, 2000).
pKi: −log10 of the molar value.

What follows are compounds tested on Rattus norvegicus (assay: Renal excretion of bicarbonate after administration of 5 mg/kg in rats.). Conditions: not given.
Type: functional, Kidney
For `Cc1cc(-c2ccccc2)cc(C)[n+]1CC(=O)Nc1nnc(S(N)(=O)=O)s1.[O-][Cl+3]([O-])([O-])[O-]`, the Bicarbonate level was 38. Work on `CC(C)c1cc(-c2ccccc2)cc(C(C)C)[n+]1CC(=O)/N=c1/sc(S(N)(=O)=O)nn1C.[O-][Cl+3]([O-])([O-])[O-]` yielded a Bicarbonate level of 40.

These compounds were tested on Rattus norvegicus (assay: Renal excretion of bicarbonate after administration of 4 mg/kg in rats.). Conditions: not given.
Type: functional, Kidney
In the case of `CCc1cc(-c2ccccc2)cc(CC)[n+]1CC(=O)Nc1ccc(S(=O)(=O)/N=c2/sc(S(N)(=O)=O)nn2C)cc1.[O-][Cl+3]([O-])([O-])[O-]`, the Bicarbonate level was 40.

Species on record: Rattus norvegicus
Conditions: dose 10 mg/kg
For `NS(=O)(=O)c1nnc(NS(=O)(=O)c2ccccc2)s1` [BENZOLAMIDE], the Bicarbonate level was 115.

What follows are compounds tested against T1, Carbonic anhydrase 4 (Bos taurus, UniProt Q95323). Conditions: not given.
T1 sequence (Q95323 whole entry): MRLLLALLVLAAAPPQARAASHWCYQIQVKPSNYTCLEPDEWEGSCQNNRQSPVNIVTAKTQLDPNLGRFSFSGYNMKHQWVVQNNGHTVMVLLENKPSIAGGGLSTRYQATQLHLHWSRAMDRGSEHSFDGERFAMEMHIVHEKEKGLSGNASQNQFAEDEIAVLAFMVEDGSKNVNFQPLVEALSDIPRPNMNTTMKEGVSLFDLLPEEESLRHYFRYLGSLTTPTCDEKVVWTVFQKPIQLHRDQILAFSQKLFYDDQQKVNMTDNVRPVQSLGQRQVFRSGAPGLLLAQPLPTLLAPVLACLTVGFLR
`CC(C)c1cc(-c2ccccc2)cc(C(C)C)[n+]1CC(=O)OCCOc1ccc2nc(S(N)(=O)=O)sc2c1` showed a pKi of 7.52. `Cc1cc(-c2ccccc2)cc(C)[n+]1CC(=O)OCCc1ccc(S(N)(=O)=O)cc1` showed a pKi of 7.16. Work on `CC(C)c1cc(-c2ccccc2)cc(C(C)C)[n+]1CC(=O)Nc1ccc(S(=O)(=O)Nc2nnc(S(N)(=O)=O)s2)cc1` yielded a pKi of 8.00. `CC(C)c1cc(-c2ccccc2)cc(C(C)C)[n+]1CC(=O)OCc1ccc(S(N)(=O)=O)cc1` showed a pKi of 6.92. `Cc1cc(C)[n+](CC(=O)Nc2ccc3nc(S(N)(=O)=O)sc3c2)c(C)c1` gave a pKi of 7.30. `CCc1cc(-c2ccccc2)cc(CC)[n+]1CC(=O)Nc1ccc(S(=O)(=O)Nc2nnc(S(N)(=O)=O)s2)cc1` gave a pKi of 8.05. `Cc1cc(-c2ccccc2)cc(C)[n+]1CC(=O)Nc1ccc(S(N)(=O)=O)cc1Br` gave a pKi of 7.46. `CCc1cc(-c2ccccc2)cc(CC)[n+]1CC(=O)Nc1cc(C(F)(F)F)c(S(N)(=O)=O)cc1S(N)(=O)=O` gave a pKi of 7.48. `CC(C)c1cc(-c2ccccc2)cc(C(C)C)[n+]1CC(=O)Oc1ccc2nc(S(N)(=O)=O)sc2c1` was tested, and the pKi was 7.41. `Cc1cc(-c2ccccc2)cc(C)[n+]1CC(=O)Nc1ccc(S(=O)(=O)/N=c2/sc(S(N)(=O)=O)nn2C)cc1` showed a pKi of 8.10. `Cc1cc(-c2ccccc2)cc(C)[n+]1CC(=O)Nc1nnc(S(N)(=O)=O)s1.[O-][Cl+3]([O-])([O-])[O-]` was tested, and the pKi was 7.77. Compound `CCc1cc(-c2ccccc2)cc(CC)[n+]1CC(=O)OCc1ccc(S(N)(=O)=O)cc1` has a pKi of 7.01. `Cc1cc(-c2ccccc2)cc(C)[n+]1CC(=O)Nc1nccc(Nc2ccc(S(N)(=O)=O)cc2)n1` was tested, and the pKi was 7.30. `Cc1cc(C)[n+](CC(=O)NCc2ccc(S(N)(=O)=O)cc2)c(C)c1` gave a pKi of 7.10. Work on `CC(C)c1cc(-c2ccccc2)cc(C(C)C)[n+]1CC(=O)Nc1cc(C(F)(F)F)c(S(N)(=O)=O)cc1S(N)(=O)=O` yielded a pKi of 7.38. In the case of `CC(C)c1cc(-c2ccccc2)cc(C(C)C)[n+]1CC(=O)NCc1ccc(S(N)(=O)=O)cc1`, the pKi was 7.12. `CCc1cc(-c2ccccc2)cc(CC)[n+]1CC(=O)Nc1ccc(S(=O)(=O)/N=c2/sc(S(N)(=O)=O)nn2C)cc1.[O-][Cl+3]([O-])([O-])[O-]` was tested, and the pKi was 8.00. `CC(C)c1cc(-c2ccccc2)cc(C(C)C)[n+]1CC(=O)Nc1ccc(S(N)(=O)=O)cc1Cl` gave a pKi of 7.25. `Cc1cc(-c2ccccc2)cc(C)[n+]1CC(=O)Nc1cc(C(F)(F)F)c(S(N)(=O)=O)cc1S(N)(=O)=O` gave a pKi of 7.48. `Cc1cc(-c2ccccc2)cc(C)[n+]1CC(=O)/N=c1/sc(S(N)(=O)=O)nn1C` gave a pKi of 7.80. `Cc1cc(-c2ccccc2)cc(C)[n+]1CC(=O)Nc1ccc(S(N)(=O)=O)cc1Cl` was tested, and the pKi was 7.42. Work on `Cc1cc(-c2ccccc2)cc(C)[n+]1CC(=O)Nc1cc(Cl)c(S(N)(=O)=O)cc1S(N)(=O)=O` yielded a pKi of 7.52. Work on `CCc1cc(-c2ccccc2)cc(CC)[n+]1CC(=O)Nc1nnc(S(N)(=O)=O)s1` yielded a pKi of 7.60. For `CC(C)c1cc(-c2ccccc2)cc(C(C)C)[n+]1CC(=O)/N=c1/sc(S(N)(=O)=O)nn1C.[O-][Cl+3]([O-])([O-])[O-]`, the pKi was 7.46. `CCc1cc(-c2ccccc2)cc(CC)[n+]1CC(=O)NNc1ccc(S(N)(=O)=O)cc1` gave a pKi of 6.47. `Cc1cc(C)[n+](CC(=O)Nc2cc(Cl)c(S(N)(=O)=O)cc2S(N)(=O)=O)c(C)c1` was tested, and the pKi was 7.19. Work on `CCc1cc(-c2ccccc2)cc(CC)[n+]1CC(=O)Nc1cc(Cl)c(S(N)(=O)=O)cc1S(N)(=O)=O` yielded a pKi of 7.44. `Cc1cc(C)[n+](CC(=O)Nc2cc(C(F)(F)F)c(S(N)(=O)=O)cc2S(N)(=O)=O)c(C)c1` gave a pKi of 7.24. `Cc1cc(-c2ccccc2)cc(C)[n+]1CC(=O)Nc1ccc2nc(S(N)(=O)=O)sc2c1` gave a pKi of 7.72. In the case of `Cc1cc(C)[n+](CC(=O)OCc2ccc(S(N)(=O)=O)cc2)c(C)c1`, the pKi was 6.85. `Cc1cc(C)[n+](CC(=O)Oc2ccc3nc(S(N)(=O)=O)sc3c2)c(C)c1` was tested, and the pKi was 7.54. `Cc1cc(C)[n+](CC(=O)Nc2ccc(S(N)(=O)=O)cc2F)c(C)c1` showed a pKi of 7.36. Compound `CC(C)c1cc(-c2ccccc2)cc(C(C)C)[n+]1CC(=O)Nc1ccc(S(=O)(=O)/N=c2/sc(S(N)(=O)=O)nn2C)cc1` has a pKi of 8.00. `Cc1cc(C)[n+](CC(=O)NCCC(=O)Nc2nnc(S(N)(=O)=O)s2)c(C)c1` was tested, and the pKi was 7.74.

Each compound was assayed against Carbonic anhydrase 1 (Homo sapiens, UniProt P00915). Conditions: not given.
Carbonic anhydrase 1, sequence (P00915 whole entry): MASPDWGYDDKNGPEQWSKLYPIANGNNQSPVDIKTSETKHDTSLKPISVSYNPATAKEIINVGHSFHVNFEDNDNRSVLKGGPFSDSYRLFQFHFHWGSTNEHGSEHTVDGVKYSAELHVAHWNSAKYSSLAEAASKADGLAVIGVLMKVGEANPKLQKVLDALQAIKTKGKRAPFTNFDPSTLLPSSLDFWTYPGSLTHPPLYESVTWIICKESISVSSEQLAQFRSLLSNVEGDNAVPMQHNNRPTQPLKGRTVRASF
`CC(C)c1cc(-c2ccccc2)cc(C(C)C)[n+]1CC(=O)OCCOc1ccc2nc(S(N)(=O)=O)sc2c1` showed a pKi of 7.96. Work on `Cc1cc(-c2ccccc2)cc(C)[n+]1CC(=O)OCCc1ccc(S(N)(=O)=O)cc1` yielded a pKi of 5.96. Work on `CC(C)c1cc(-c2ccccc2)cc(C(C)C)[n+]1CC(=O)Nc1ccc(S(=O)(=O)Nc2nnc(S(N)(=O)=O)s2)cc1` yielded a pKi of 7.85. Compound `CC(C)c1cc(-c2ccccc2)cc(C(C)C)[n+]1CC(=O)OCc1ccc(S(N)(=O)=O)cc1` has a pKi of 5.75. Compound `Cc1cc(C)[n+](CC(=O)Nc2ccc3nc(S(N)(=O)=O)sc3c2)c(C)c1` has a pKi of 7.82. Compound `CCc1cc(-c2ccccc2)cc(CC)[n+]1CC(=O)Nc1ccc(S(=O)(=O)Nc2nnc(S(N)(=O)=O)s2)cc1` has a pKi of 7.92. `Cc1cc(-c2ccccc2)cc(C)[n+]1CC(=O)Nc1ccc(S(N)(=O)=O)cc1Br` showed a pKi of 6.22. `CCc1cc(-c2ccccc2)cc(CC)[n+]1CC(=O)Nc1cc(C(F)(F)F)c(S(N)(=O)=O)cc1S(N)(=O)=O` was tested, and the pKi was 6.51. Work on `CC(C)c1cc(-c2ccccc2)cc(C(C)C)[n+]1CC(=O)Oc1ccc2nc(S(N)(=O)=O)sc2c1` yielded a pKi of 7.92. Work on `Cc1cc(-c2ccccc2)cc(C)[n+]1CC(=O)Nc1ccc(S(=O)(=O)/N=c2/sc(S(N)(=O)=O)nn2C)cc1` yielded a pKi of 7.96. `Cc1cc(-c2ccccc2)cc(C)[n+]1CC(=O)Nc1nnc(S(N)(=O)=O)s1.[O-][Cl+3]([O-])([O-])[O-]` gave a pKi of 6.69. Work on `CCc1cc(-c2ccccc2)cc(CC)[n+]1CC(=O)OCc1ccc(S(N)(=O)=O)cc1` yielded a pKi of 5.77. Compound `Cc1cc(-c2ccccc2)cc(C)[n+]1CC(=O)Nc1nccc(Nc2ccc(S(N)(=O)=O)cc2)n1` has a pKi of 7.46. With `Cc1cc(C)[n+](CC(=O)NCc2ccc(S(N)(=O)=O)cc2)c(C)c1` the pKi was 5.82. `CC(C)c1cc(-c2ccccc2)cc(C(C)C)[n+]1CC(=O)Nc1cc(C(F)(F)F)c(S(N)(=O)=O)cc1S(N)(=O)=O` showed a pKi of 6.51. For `CC(C)c1cc(-c2ccccc2)cc(C(C)C)[n+]1CC(=O)NCc1ccc(S(N)(=O)=O)cc1`, the pKi was 5.84. With `CCc1cc(-c2ccccc2)cc(CC)[n+]1CC(=O)Nc1ccc(S(=O)(=O)/N=c2/sc(S(N)(=O)=O)nn2C)cc1.[O-][Cl+3]([O-])([O-])[O-]` the pKi was 7.89. For `CC(C)c1cc(-c2ccccc2)cc(C(C)C)[n+]1CC(=O)Nc1ccc(S(N)(=O)=O)cc1Cl`, the pKi was 6.22. `Cc1cc(-c2ccccc2)cc(C)[n+]1CC(=O)Nc1cc(C(F)(F)F)c(S(N)(=O)=O)cc1S(N)(=O)=O` showed a pKi of 6.52. In the case of `Cc1cc(-c2ccccc2)cc(C)[n+]1CC(=O)/N=c1/sc(S(N)(=O)=O)nn1C`, the pKi was 6.70. `Cc1cc(-c2ccccc2)cc(C)[n+]1CC(=O)Nc1ccc(S(N)(=O)=O)cc1Cl` gave a pKi of 6.22. `Cc1cc(-c2ccccc2)cc(C)[n+]1CC(=O)Nc1cc(Cl)c(S(N)(=O)=O)cc1S(N)(=O)=O` was tested, and the pKi was 6.46. `CCc1cc(-c2ccccc2)cc(CC)[n+]1CC(=O)Nc1nnc(S(N)(=O)=O)s1` gave a pKi of 6.52. `CC(C)c1cc(-c2ccccc2)cc(C(C)C)[n+]1CC(=O)/N=c1/sc(S(N)(=O)=O)nn1C.[O-][Cl+3]([O-])([O-])[O-]` showed a pKi of 6.52. In the case of `CCc1cc(-c2ccccc2)cc(CC)[n+]1CC(=O)NNc1ccc(S(N)(=O)=O)cc1`, the pKi was 4.55. `Cc1cc(C)[n+](CC(=O)Nc2cc(Cl)c(S(N)(=O)=O)cc2S(N)(=O)=O)c(C)c1` showed a pKi of 6.44. `CCc1cc(-c2ccccc2)cc(CC)[n+]1CC(=O)Nc1cc(Cl)c(S(N)(=O)=O)cc1S(N)(=O)=O` was tested, and the pKi was 6.46. For `Cc1cc(C)[n+](CC(=O)Nc2cc(C(F)(F)F)c(S(N)(=O)=O)cc2S(N)(=O)=O)c(C)c1`, the pKi was 6.49. `Cc1cc(-c2ccccc2)cc(C)[n+]1CC(=O)Nc1ccc2nc(S(N)(=O)=O)sc2c1` gave a pKi of 8.00. Compound `Cc1cc(C)[n+](CC(=O)OCc2ccc(S(N)(=O)=O)cc2)c(C)c1` has a pKi of 5.74. With `Cc1cc(C)[n+](CC(=O)Oc2ccc3nc(S(N)(=O)=O)sc3c2)c(C)c1` the pKi was 7.89. `Cc1cc(C)[n+](CC(=O)Nc2ccc(S(N)(=O)=O)cc2F)c(C)c1` gave a pKi of 6.12. Compound `CC(C)c1cc(-c2ccccc2)cc(C(C)C)[n+]1CC(=O)Nc1ccc(S(=O)(=O)/N=c2/sc(S(N)(=O)=O)nn2C)cc1` has a pKi of 7.82. With `Cc1cc(C)[n+](CC(=O)NCCC(=O)Nc2nnc(S(N)(=O)=O)s2)c(C)c1` the pKi was 7.37.
